One may read the GI50 as the concentration that inhibits growth by half.

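Assay format: 96-well plates, 48-hour exposure. GI50: concentration for 50% inhibition of growth.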 Active and inactive are the calls of the source. No stated cut-off is given here; in the data, active = GI50 up to about 1.1 µM and inactive = higher.

Results on 36 molecules are retold here after ChEMBL document CHEMBL1201862, “PubChem BioAssay data set” (2004).

Among the test systems are NCI/ADR-RES; MCF7; Hs-578T.
Experiment in all cases: DTP human tumour cell line panel, 48 h

`CN(C)S(=O)(=O)n1ccnc1`: the GI50 in the test on NCI/ADR-RES and with MCF7 was > 100 µM (inactive) throughout.

For the molecule `COc1cccc(/C=C2\S/C(=N/Nc3nc(-c4ccc([N+](=O)[O-])cc4)cs3)NC2=O)c1O`, the GI50 in the test on NCI/ADR-RES is 17.9 µM (inactive); with MCF7, 16.6 µM (inactive); with Hs-578T, 12.3 µM (inactive).

With `O=C(O)c1cc2ccccc2c(/N=N/c2ccc(S(=O)(=O)O)cc2)c1O`, the GI50 in the test with NCI/ADR-RES, in the test with MCF7 and in the test on Hs-578T was > 100 µM (inactive) throughout.

As to `N#Cc1c(C#N)c(SSc2c(C#N)c(C#N)c(N)n2-c2cccc3ccccc23)n(-c2cccc3ccccc23)c1N`, the GI50 was 25.1 µM (inactive) in the test with NCI/ADR-RES, 3.47 µM (inactive) in the test with MCF7 and 24.6 µM (inactive) in the test on Hs-578T.

In the case of `COC(=O)c1ccc(NC(=O)c2cc3c(cc2Br)OCO3)o1`, the GI50 with NCI/ADR-RES was 59 µM (inactive); in the test on MCF7, > 100 µM (inactive).

As to `COc1cc2cccc(N)c2cc1OC`, the GI50 in the test with NCI/ADR-RES, in the test with MCF7 and in the test with Hs-578T was > 100 µM (inactive) in each case.

For `CSC1=C(C#N)C(=S)N=C(N)C1C(=O)Nc1ccc(C)cc1` (centres undefined), the GI50 in the test on NCI/ADR-RES and with Hs-578T was > 100 µM (inactive) throughout.

Regarding `O=[N+]([O-])/C(C(Cl)=C(Cl)Cl)=C(/Br)SCc1ccccc1`, the values for the GI50 with NCI/ADR-RES, with MCF7 and with Hs-578T were 3.29 µM (inactive), 2.84 µM (inactive) and 11.7 µM (inactive), respectively.

As for `N#CC(C#N)=Cc1ccc(C=C2SC3=C(SCCS3)S2)s1`, the GI50 was 1.63 µM (inactive) in the test with NCI/ADR-RES, 2.24 µM (inactive) with MCF7 and 41.6 µM (inactive) in the test with Hs-578T.

With `O=C1/C(=C\c2cccc(Oc3ccccc3)c2)S(=O)(=O)C(c2ccccc2)N1c1ccccc1Cl` (centres undefined), the GI50 in the test on NCI/ADR-RES was 29.4 µM (inactive); in the test with MCF7, 21.9 µM (inactive).

In the case of `CCCCCCCCCCCCCCCCNC(=O)/C(=C\c1ccc(Cl)c(Cl)c1)NC(=O)c1ccccc1`, the GI50 with NCI/ADR-RES was 48.3 µM (inactive); in the test with MCF7 it was 25.9 µM (inactive); with Hs-578T, 42.8 µM (inactive).

Take `CC(NC(=O)OC(C)(C)C)C(=O)NC1CCCC1` (centres undefined): the GI50 with NCI/ADR-RES, in the test on MCF7 and with Hs-578T was > 100 µM (inactive) in each case.

On to `O=[N+]([O-])C(=C(Nc1ccccc1)Nc1ccccc1)C(Cl)=C(Cl)Cl`, for which the GI50 with NCI/ADR-RES is 22.6 µM (inactive); in the test with MCF7, 12 µM (inactive); in the test with Hs-578T it was 21.7 µM (inactive).

Consider `Cc1ccc(S(=O)(=O)n2cc(C=O)c(-c3cn(S(=O)(=O)c4ccc(C)cc4)cc3-c3cn(S(=O)(=O)c4ccc(C)cc4)cc3C=O)c2)cc1`, for which the GI50 with NCI/ADR-RES was > 100 µM (inactive); with MCF7 it was 27.4 µM (inactive); with Hs-578T, > 100 µM (inactive).

As to `O=c1oc2ccc3ccccc3c2cc1-c1cn2c(n1)sc1ccccc12`, the GI50 is > 100 µM (inactive) in the test on NCI/ADR-RES, 26.4 µM (inactive) in the test with MCF7 and > 100 µM (inactive) in the test with Hs-578T.

Regarding `Nn1c(CCCCCCCCc2nnc(COc3ccccc3)n2N)nnc1COc1ccccc1`, the GI50 in the test on NCI/ADR-RES, in the test with MCF7 and with Hs-578T was > 100 µM (inactive) in each case.

As to `CSc1ccc(-c2cc(-c3nc4ccccc4[nH]3)nc(N)c2C#N)cc1`, the GI50 in the test with NCI/ADR-RES is 31.3 µM (inactive); in the test on MCF7, 15.6 µM (inactive); in the test on Hs-578T, 24.7 µM (inactive).

On to `Cc1cc(N(CCOS(C)(=O)=O)CCOS(C)(=O)=O)ccc1/C=N/c1ccc(-c2csc(-c3ccc(Br)cc3)n2)cc1`, for which the GI50 in the test on NCI/ADR-RES is 15.1 µM (inactive); in the test with MCF7, 1.02 µM (active); in the test with Hs-578T it was 35.6 µM (inactive).

As to `O=[N+]([O-])c1ccc2c(c1)c1nn2CCCCOc2nn(c3ccc([N+](=O)[O-])cc23)CCCCO1`, the GI50 in the test with NCI/ADR-RES, in the test with MCF7 and in the test with Hs-578T was > 100 µM (inactive) each time.

Take `COc1cc(OC)c(/C=C\c2cc(/C=C/c3c(OC)cc(OC)cc3OC)c3ccccc3[n+]2C)c(OC)c1`: the GI50 was > 100 µM (inactive) in the test with NCI/ADR-RES, 2.86 µM (inactive) in the test with MCF7 and 0.863 µM (active) in the test with Hs-578T.

`CCOC(=O)N1C(=S)C(C(=O)OC)(C(=O)OC)N=C1C`: the GI50 in the test on NCI/ADR-RES and with MCF7 was > 100 µM (inactive) throughout.

For `CCOC(=O)CC(N1CC1)N1CC1`, the GI50 with NCI/ADR-RES, in the test on MCF7 and with Hs-578T was > 10 µM (inactive) each time.

With `CC1(C)COC(c2cccc(C3=NC(C)(C)CO3)c2Br)=N1`, the GI50 in the test with NCI/ADR-RES and in the test with MCF7 was > 100 µM (inactive) throughout.

Consider `C/C(=N\NC(=O)Nc1ccccc1Cl)c1ccc(O)cc1`, for which the GI50 in the test on NCI/ADR-RES, with MCF7 and in the test on Hs-578T was > 100 µM (inactive) throughout.

For `C/C(=N/NC(=S)NCCc1ccccn1)c1cnccn1`, the GI50 in the test with Hs-578T was 78.5 µM (inactive).

Consider `CC(C)=CC1C(C(=O)OCc2cc3c(cc2Cl)OCO3)C1(C)C` (centres undefined), for which the GI50 in the test on NCI/ADR-RES was 42.8 µM (inactive); with Hs-578T, 21.9 µM (inactive).

For the molecule `C/C(Nc1ccc(Cl)cc1)=C1/CCOC1=O`, the results for the GI50 in the test on NCI/ADR-RES, in the test with MCF7 and in the test on Hs-578T were > 75.9 µM (inactive), 13.2 µM (inactive) and > 100 µM (inactive), respectively.

As for `CN(C(=O)CCC(=O)O)c1ccccc1C(=O)O`, the GI50 in the test with NCI/ADR-RES, in the test on MCF7 and in the test on Hs-578T was > 100 µM (inactive) each time.

For `O=C(CCc1ccccc1)n1cccc1CO`, the results for the GI50 in the test on NCI/ADR-RES, in the test with MCF7 and in the test on Hs-578T were > 100 µM (inactive), > 100 µM (inactive) and 60.3 µM (inactive), respectively.

For the molecule `CN(C)Cc1cc(/N=N/c2cccc(Cl)c2)ccc1O`, the GI50 with NCI/ADR-RES was 5.05 µM (inactive); in the test with MCF7, 14.8 µM (inactive); in the test with Hs-578T, 11.4 µM (inactive).

For the molecule `C[C@]12CC[C@H]3[C@@H](CC=C4C[C@@H](O)CC[C@@]43C)[C@@H]1C/C(=C\c1ccncc1)[C@@H]2O`, the GI50 is 17.3 µM (inactive) with NCI/ADR-RES, 23 µM (inactive) in the test with MCF7 and 39.3 µM (inactive) in the test on Hs-578T.

`O=C1NC(=O)[C@H]2C3C=CC([C@@H]12)[C@@H]1C(=O)NC(=O)[C@H]31`: the values for the GI50 in the test with NCI/ADR-RES, in the test with MCF7 and in the test on Hs-578T were > 100 µM (inactive), 97.1 µM (inactive) and > 100 µM (inactive), respectively.

With `CC(=O)OC12c3ccccc3-c3ccccc3C1C(C(=O)O)C2C(=O)O` (centres undefined), the GI50 with NCI/ADR-RES, with MCF7 and in the test with Hs-578T was > 10 µM (inactive) in each case.

Regarding `CC1=C[C@@H](C)C[C@]2(C)CC[C@H](O2)[C@]23CC[C@](CO)(C[C@H](O2)[C@@H]2O[C@@](C)(CC2=O)[C@@H](O)[C@H]2CC[C@@]4(CCC[C@@H](O4)[C@H](C)C(=O)O[C@H]4C[C@H]([C@]5(O)OCC[C@H](C)[C@@H]5O)O[C@H]4C=C1)O2)O3`, the GI50 with NCI/ADR-RES was > 5.18 µM (inactive); with MCF7, > 10 µM (inactive); in the test with Hs-578T, 0.00163 µM (active).

On to `c1ccc([P+](c2ccccc2)(c2ccccc2)c2ccc([P+](c3ccccc3)(c3ccccc3)c3ccccc3)c3ccccc23)cc1`, for which the GI50 was > 100 µM (inactive) with NCI/ADR-RES, 47 µM (inactive) with MCF7 and 47.8 µM (inactive) in the test with Hs-578T.

In the case of `Oc1cc(-c2ccc3ccccc3c2)nc2ncc(Cl)cc12`, the GI50 with NCI/ADR-RES is 6.32 µM (inactive); with MCF7 it was 2.44 µM (inactive); in the test on Hs-578T it was 5.27 µM (inactive).
